Series [1] is described as follows: Desolvation / dehydration of crystalline forms on drying or heating. It is filed as physicochemical. As to conditions: for temperature of heating/drying at which the form is converted to non-solvated non-hydrated form B: desolvation or dehydration to form B.
A short description of series [2]: Solid-state stability of crystalline forms on exposure to humidity. It is filed as physicochemical.

With `C[C@H]1CC[C@@]2(OC1)O[C@H]1C[C@H]3[C@@H]4CC[C@@H]5C[C@@H](O)CC[C@]5(C)[C@H]4CC[C@]3(C)[C@H]1[C@@H]2C` [form A, sarsasapogenin], in series [1] (after filtration and initial drying), the “stability with respect to further drying” value is “reasonable stability”. Also, in series [1] (listed as hemi acetone solvate), the “temperature of heating/drying at which the form is converted to non-solvated non-hydrated form B” value was 80-100 °C. Also, the “form change on exposure to humidity” value in series [2] (humidity of 50% or greater) is “led to the formation of form C”.
`C[C@H]1CC[C@@]2(OC1)O[C@H]1C[C@H]3[C@@H]4CC[C@@H]5C[C@@H](O)CC[C@]5(C)[C@H]4CC[C@]3(C)[C@H]1[C@@H]2C` [form C, sarsasapogenin]: in series [1], the “temperature of heating/drying at which the form is converted to non-solvated non-hydrated form B” value was 40-60 °C.
For `C[C@H]1CC[C@@]2(OC1)O[C@H]1C[C@H]3[C@@H]4CC[C@@H]5C[C@@H](O)CC[C@]5(C)[C@H]4CC[C@]3(C)[C@H]1[C@@H]2C` [form H, sarsasapogenin], the “form change on storage” value in series [2] (40° C. and 75% relative humidity for 18 days) was “furnish form I”.
As to `CC1CCC2(OC1)O[C@H]1CC3C4CC[C@@H]5C[C@@H](O)CC[C@]5(C)C4CC[C@]3(C)C1[C@@H]2C` (stereo partly drawn) [form D, sarsasapogenin], the “solvate stoichiometry on filtration and drying” value in series [1] is reported as “variable stoichiometry”.

For the origin of these results see patent US20080194530A1, “Chemical Compounds” (Phytopharm PLC, priority 2004, published 2008).
